From patent EP3381898A1, “SYMMETRICAL TRIS-ARYL-AMIDE DERIVATIVES AND THEIR USE AS ANTI-HEPARANASE” (priority 2017, dated 2018)

What was measured:
Assay type in all cases: cell-based, human
VEGF = assay: Real-Time Quantitative PCR of mRNA gene expression in HT1080 cells; settings: 24 h, 2.5 uM, mean value
Procedure: (§1) To evaluate the effect of heparanase inhibitors on the tumor transcription of genes encoding for proangiogenic factors, such as FGF1/2, VEGF, MMP-9, HSPE-1, the relative mRNA levels were analyzed by quantitative Real-Time Quantitative PCR.
(§2) To perform the assay, HT1080 (human fibrosarcoma) cells were cultured in complete medium containing 10%FCS (fetal calf serum). Cells were plated in 24-well plates and treated at fixed concentration (i.e., highest non-toxic concentration) of test compounds. After 24 h, cells were detached, collected and total RNA extracted by RNeasy Mini Kit (QIAGEN). Following reverse transcription step, FGF1/2, VEGF, MMP-9, HSPE-1 mRNA levels, were quantified by qPCR using the advanced Universal SYBR Green Supermix (Bio Rad) and ABI PRISM 7900HT Thermal Cycler System (Perkin Elmer), according to the manufacturer's instructions. Appropriate no-RT and non-template controls were included in each 96-well PCR reaction, and dissociation analysis was performed at the end of each run to confirm the specificity of the reaction. Relative levels of RNA were calculated using the ddCt method. Standard curve and sample data were run in duplicate. In Table 4 a mean value is reported.

HPSE-1 = assay: as above; settings: 24 h, 2.5 uM, mean value
Procedure: as §1, §2

FGF-1 = assay: as above; settings: 24 h, 2.5 uM, mean value
Procedure: as §1, §2

FGF-2 = assay: as above; settings: 24 h, 2.5 uM, mean value
Procedure: as §1, §2

MMP-9 = assay: as above; settings: 24 h, 2.5 uM, mean value
Procedure: as §1, §2

[1] = test system: genes encoding for proangiogenic factors; assay: Real-Time Quantitative PCR in HT1080 cells, summary statement for all factors; settings: 2.5 µM, result in words
Procedure: as §1
as §2, with “reported. […]” for “reported.”

## 2,2'-{carbonylbis[imino[5-(trifluoromethyl)-3,1-phenylene]carbonylimino(1-methyl-1H-pyrrole-4,2-diyl)carbonylimino-3,1-phenylene(1-oxoethane-2,1-diyl)imino]}diethanoic acid [Compound 12i]
VEGF
  Gene Expression (% mRNA vs. control) VEGF: ~ 55%
HPSE-1
  Gene Expression (% mRNA vs. control) HPSE-1: ~ 63%
FGF-1
  Gene Expression (% mRNA vs. control) FGF-1: ~ 53%
FGF-2
  Gene Expression (% mRNA vs. control) FGF-2: ~ 82%
MMP-9
  Gene Expression (% mRNA vs. control) MMP-9: ~ 50%
[1]
  inhibition of genes expression encoding for proangiogenic factors: significant inhibition
